Data published in the supplement of paper PMC8967900.

What was measured:
Test in all cases: selective drug sensitivity score (sDSS, relative to normal bone marrow) (sDSS (score)); higher = more potent and effective on the cell line relative to normal bone marrow cells
Settings in all cases: 72 h
TMD5 = tested on: TMD5
TANOUE = tested on: TANOUE
P12-ICHIKAWA = tested on: P12-ICHIKAWA
697 = tested on: 697
KOPN-8 = tested on: KOPN-8
ALL-PO = tested on: ALL-PO
COG-LL-319h = tested on: COG-LL-319h
CCRF-HSB2 = tested on: CCRF-HSB2
MHH-CALL-2 = tested on: MHH-CALL-2
MOLT-16 = tested on: MOLT-16
MHH-CALL-4 = tested on: MHH-CALL-4
MOLT-14 = tested on: MOLT-14
MOLT-4 = tested on: MOLT-4
380 = tested on: 380
COG-LL-394h = tested on: COG-LL-394h
COG-LL-317 = tested on: COG-LL-317
MN-60 = tested on: MN-60
JURKAT = tested on: JURKAT
PEER = tested on: PEER
COG-LL-402h = tested on: COG-LL-402h
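Note: ALL cell lines in 384-well plates, five doses spanning 10,000-fold, each plate scaled between vehicle and 100 µmol/L benzalkonium chloride controls, sDSS an adapted area-under-curve metric.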

SMILES | selective drug sensitivity score (TMD5) | selective drug sensitivity score (TANOUE) | selective drug sensitivity score (P12-ICHIKAWA) | selective drug sensitivity score 697 | selective drug sensitivity score (KOPN-8) | selective drug sensitivity score (ALL-PO) | selective drug sensitivity score (COG-LL-319h) | selective drug sensitivity score (CCRF-HSB2) | selective drug sensitivity score (MHH-CALL-2) | selective drug sensitivity score (MOLT-16) | selective drug sensitivity score (MHH-CALL-4) | selective drug sensitivity score (MOLT-14) | selective drug sensitivity score (MOLT-4) | selective drug sensitivity score 380 | selective drug sensitivity score (COG-LL-394h) | selective drug sensitivity score (COG-LL-317) | selective drug sensitivity score (MN-60) | selective drug sensitivity score (JURKAT) | selective drug sensitivity score (PEER) | selective drug sensitivity score (COG-LL-402h)
COc1cc([C@@H]2c3cc4c(cc3[C@@H](O[C@@H]3O[C@@H]5CO[C@@H](C)O[C@H]5[C@H](O)[C@H]3O)[C@H]3COC(=O)[C@H]23)OCO4)cc(OC)c1O [Etoposide] (top concentration 10000 nM) | 5.24 | -6.26 | 18.9 | 20.6 | 24.9 | 5.44 | 23.2 | 26 | 13.2 | 28.9 | 10.2 | 21.5 | 23.5 | 21.3 | 7.04 | 29.8 | -0.86 | 14.2 | 6.84 | 21.4
O=C(Nc1cnn2ccc(N3CCC[C@@H]3c3cc(F)ccc3F)nc12)N1CC[C@H](O)C1 [Larotrectinib] (top concentration 1000 nM) | -0.62 | -0.62 | -0.62 | -0.62 | -0.62 | -0.62 | 3.78 | -0.62 | -0.52 | -0.62 | -0.62 | -0.62 | -0.62 | -0.62 | -0.62 | -0.62 | -0.62 | -0.62 | -0.62 | 2.78
CC[C@H](CO)Nc1nc(NCc2ccccc2)c2ncn(C(C)C)c2n1 [Seliciclib] (top concentration 10000 nM) | -1.04 | -1.04 | -0.94 | 1.16 | 4.26 | -1.04 | 1.66 | 0.56 | 1.26 | 0.26 | 0.16 | -1.04 | -1.04 | -1.04 | -1.04 | 3.56 | -1.04 | -0.84 | -0.24 | -1.04
CN1CCN(C(=O)c2ccc3cc(CCNc4ncnc5ccc(C#N)cc45)ccc3c2)CC1 [Senexin_B] (top concentration 1000 nM) | -0.6 | 1.1 | 0.4 | 2.1 | -0.6 | -0.6 | -0.6 | 3.8 | -0.1 | 1.8 | -0.6 | 2.1 | -0.6 | -0.6 | 1 | 0.5 | 1.4 | 3.1 | 1.8 | -0.4
C[C@H]1CN(C2COC2)CCN1c1ccc(Nc2cc(-c3ccnc(N4CCn5c(cc6c5CC(C)(C)C6)C4=O)c3CO)cn(C)c2=O)nc1 [GDC-0853] (top concentration 1000 nM) | 0 | 0 | 0 | 0 | 0 | 0 | 2.8 | 0 | 0 | 0 | 0.2 | 0 | 0 | 0 | 0 | 0 | 0 | 0 | 0 | 1.1
CCC1=C[C@@H]2CN(C1)Cc1c([nH]c3ccccc13)[C@@](C(=O)OC)(c1cc3c(cc1OC)N(C)[C@H]1[C@@](O)(C(=O)OC)[C@H](OC(C)=O)[C@]4(CC)C=CCN5CC[C@]31[C@@H]54)C2 [Vinorelbine] (top concentration 10000 nM) | 13.4 | -8.32 | 15.9 | 25 | 25.8 | 17.5 | 12.2 | 20.1 | 19.3 | 24.7 | 8.98 | 22.9 | 20.6 | 23.3 | 9.58 | 25.6 | 1.68 | 23.5 | 19.8 | 22.2
CN1CCN(C2CCN(C(=O)Nc3cc(Oc4ccc(NC(=O)C5(C(=O)Nc6ccc(F)cc6)CC5)c(F)c4)ccn3)CC2)CC1 [Golvatinib] (top concentration 2500 nM) | 0.76 | -0.14 | -0.14 | 1.76 | -0.14 | 3.16 | -0.14 | 2.96 | 0.26 | -0.14 | -0.14 | -0.14 | -0.14 | -0.14 | 2.26 | -0.14 | -0.14 | -0.14 | 2.46 | -0.14
CCN(c1cc(-c2ccc(CN3CCOCC3)cc2)cc(C(=O)NCc2c(C)cc(C)[nH]c2=O)c1C)C1CCOCC1 [Tazemetostat] (top concentration 10000 nM) | -0.08 | -0.08 | 0.02 | 0.32 | -0.08 | 0.32 | -0.08 | 1.42 | 6.72 | -0.08 | -0.08 | 0.32 | -0.08 | -0.08 | -0.08 | -0.08 | -0.08 | 0.02 | 0.32 | -0.08
c1cn2cc(-c3ccc4cn[nH]c4c3)nc(Nc3ccc(N4CCOCC4)cc3)c2n1 [Entospletinib] (top concentration 5000 nM) | -0.64 | -0.64 | -0.64 | 3.16 | 1.46 | 7.26 | -0.64 | -0.64 | -0.64 | -0.64 | -0.64 | -0.64 | -0.64 | -0.64 | -0.64 | -0.64 | -0.64 | -0.64 | -0.64 | 0.36
